Test results reported in PMC10317887, “Hypoglycaemia frequency and physiological response after double or triple doses of once-weekly insulin icodec vs once-daily insulin glargine U100 in type 2 diabetes: a randomised crossover trial” (Diabetologia, 2023).

How the values were obtained:
[1] = system: individuals with type 2 diabetes; assay: Hypoglycaemia awareness question 'Do you feel hypo?' during hypoglycaemia induction; type: in vivo, human; settings: subgroup
Description: Hypoglycaemia awareness was determined by asking the question, ‘Do you feel hypo?’, to the participant.

[2] = system: glucagon; assay: Counterregulatory hormone response: plasma glucagon (ELISA); type: in vivo, human; settings: for Glucagon at PG3.0 mmol/l, estimated geometric mean / Glucagon at PGnadir, estimated geometric mean: plasma, subgroup
Description: (§1) Plasma concentrations of glucagon were measured by an enzyme-linked immunosorbent assay (Mercodia AB, Uppsala, Sweden). Plasma concentrations of adrenaline (epinephrine) and noradrenaline (norepinephrine) were measured by liquid chromatography-mass spectrometry (Thermo Fisher Scientific, Dreieich, Germany). Serum concentrations of cortisol and growth hormone were measured by electrochemiluminescent immunoassays (Roche Diagnostics, Mannheim, Germany).

[3] = system: adrenaline (epinephrine); assay: Counterregulatory hormone response: plasma adrenaline (LC-MS); type: in vivo, human; settings: for Adrenaline at PG3.0 mmol/l, estimated geometric mean / Adrenaline at PGnadir, estimated geometric mean: plasma, subgroup
Description: as §1

[4] = system: noradrenaline (norepinephrine); assay: Counterregulatory hormone response: plasma noradrenaline (LC-MS); type: in vivo, human; settings: for Noradrenaline at PG3.0 mmol/l, estimated geometric mean / Noradrenaline at PGnadir, estimated geometric mean: plasma, subgroup
Description: as §1

[5] = system: cortisol; assay: Counterregulatory hormone response: serum cortisol (electrochemiluminescent immunoassay); type: in vivo, human; settings: for Cortisol at PG3.0 mmol/l, estimated geometric mean / Cortisol at PGnadir, estimated geometric mean: serum, subgroup; for Cortisol at PGnadir, estimated geometric mean: n=19 icodec
Description: as §1

[6] = system: growth hormone; assay: Counterregulatory hormone response: serum growth hormone (electrochemiluminescent immunoassay); type: in vivo, human; settings: for Growth hormone at PG3.0 mmol/l, estimated geometric mean / Growth hormone at PGnadir, estimated geometric mean: serum, subgroup; for Growth hormone at PGnadir, estimated geometric mean: n=19 icodec
Description: as §1

[7] = system: insulin receptor; settings: ref [9], [10]; cited from earlier work
Description: In addition, the low insulin receptor binding affinity of icodec contributes to its long half-life by reducing the clearance rate, as insulin is mainly cleared by internalisation following binding to and activation of the insulin receptor [9, 10]. In case of excess amounts of icodec throughout the body, e.g ...

[8] = system: individuals with type 2 diabetes; assay: Vital signs during hypoglycaemia induction
Description: Hypoglycaemic response assessments were conducted at predefined PG levels during hypoglycaemia development and recovery (Fig. 1b). Hypoglycaemic symptoms score (HSS), hypoglycaemia awareness, counterregulatory hormones, vital signs and cognitive function tests were assessed at baseline (PG5.5 mmol/l), during hypoglycaemia development (PG3.9 mmol/l and PG3.0 mmol/l) and at PGnadir. In addition, counterregulatory hormones and vital signs were assessed during recovery from hypoglycaemia at PG3.0 mmol/l, PG3.9 mmol/l and PG5.5 mmol/l.
Vital signs (diastolic blood pressure, systolic blood pressure and pulse) were measured after ≥5 min of rest in a supine position.
Changes in HSS, vital signs and cognitive function tests from baseline (PG5.5 mmol/l) to PG3.0 mmol/l and to PGnadir were compared between insulin products at each of the two dose levels using the same approach as described for PGnadir, except that no logarithmic transformation was done and that the baseline value was included as a covariate. Least-squares means, treatment difference and 95% CI were derived.

[9] = double dose, n=17 icodec, 15 glargine U100
[10] = triple dose, n=20 icodec, 28 glargine U100
[11] = triple dose, n=20 icodec, 29 glargine U100
[12] = double dose, n=20 icodec, 19 glargine U100
[13] = double dose, change from baseline, subgroup, n=17 icodec, 15 glargine U100
[14] = double dose, change from baseline, subgroup, n=20 icodec, 19 glargine U100

insulin icodec
Proportion of individuals answering 'Yes' to 'Do you feel hypo?' ([1]; double dose, at PG3.0 mmol/l, n=9/17 icodec, 2/15 glargine U100): 52.9% | Proportion of individuals answering 'Yes' to 'Do you feel hypo?' ([1]; double dose, at PGnadir, n=14/20 icodec, 10/19 glargine U100): 70.0% | Proportion of individuals answering 'Yes' to 'Do you feel hypo?' ([1]; triple dose, at PG3.0 mmol/l, n=5/20 icodec, 8/28 glargine U100): 25.0% | Proportion of individuals answering 'Yes' to 'Do you feel hypo?' ([1]; triple dose, at PGnadir, n=9/20 icodec, 15/29 glargine U100): 45.0% | Glucagon at PG3.0 mmol/l, treatment ratio (95% CI) icodec vs glargine U100 ([2]; double dose): 0.83 (0.59, 1.16) | Glucagon at PGnadir, treatment ratio (95% CI) icodec vs glargine U100 ([2]; double dose): 0.92 (0.69, 1.23) | Glucagon at PG3.0 mmol/l, estimated geometric mean [2, 9]: 39.6 ng/L | Glucagon at PGnadir, estimated geometric mean ([2]; double dose, n=19 icodec, 19 glargine U100): 48.9 ng/L | Glucagon at PGnadir, treatment ratio (95% CI) icodec vs glargine U100 ([2]; triple dose): 1.01 (0.74, 1.38) | Glucagon at PG3.0 mmol/l, treatment ratio (95% CI) icodec vs glargine U100 ([2]; triple dose, listed as Insulin icodec): 1.07 (0.86, 1.33) | Glucagon at PG3.0 mmol/l, treatment ratio (95% CI) icodec vs glargine U100 ([2]; triple dose, listed as icodec): 1.07 | Glucagon at PG3.0 mmol/l, estimated geometric mean [2, 10]: 55.2 ng/L | Glucagon at PGnadir, estimated geometric mean [2, 11]: 59.8 ng/L | Adrenaline at PG3.0 mmol/l, treatment ratio (95% CI) icodec vs glargine U100 ([3]; double dose): 0.90 (0.54, 1.52) | Adrenaline at PGnadir, treatment ratio (95% CI) icodec vs glargine U100 ([3]; double dose): 0.90 (0.62, 1.30) | Adrenaline at PG3.0 mmol/l, estimated geometric mean [3, 9]: 476.7 pmol/L | Adrenaline at PGnadir, estimated geometric mean [3, 12]: 530.4 pmol/L | Adrenaline at PG3.0 mmol/l, treatment ratio (95% CI) icodec vs glargine U100 ([3]; triple dose): 2.54 | Adrenaline at PGnadir, treatment ratio (95% CI) icodec vs glargine U100 ([3]; triple dose): 1.29 (0.88, 1.89) | Adrenaline at PG3.0 mmol/l, estimated geometric mean [3, 10]: 793.8 pmol/L | Adrenaline at PGnadir, estimated geometric mean [3, 11]: 735.8 pmol/L | Noradrenaline at PG3.0 mmol/l, treatment ratio (95% CI) icodec vs glargine U100 ([4]; double dose): 1.12 (0.83, 1.50) | Noradrenaline at PGnadir, treatment ratio (95% CI) icodec vs glargine U100 ([4]; double dose): 1.19 (0.91, 1.55) | Noradrenaline at PG3.0 mmol/l, estimated geometric mean [4, 9]: 952.7 pmol/L | Noradrenaline at PGnadir, estimated geometric mean [4, 12]: 1078.0 pmol/L | Noradrenaline at PG3.0 mmol/l, treatment ratio (95% CI) icodec vs glargine U100 ([4]; triple dose): 1.26 | Noradrenaline at PGnadir, treatment ratio (95% CI) icodec vs glargine U100 ([4]; triple dose): 1.05 (0.79, 1.40) | Noradrenaline at PG3.0 mmol/l, estimated geometric mean [4, 10]: 1058.4 pmol/L | Noradrenaline at PGnadir, estimated geometric mean [4, 11]: 934.1 pmol/L | Cortisol at PG3.0 mmol/l, treatment ratio (95% CI) icodec vs glargine U100 ([5]; double dose): 1.60 (0.91, 2.80) | Cortisol at PGnadir, treatment ratio (95% CI) icodec vs glargine U100 ([5]; double dose): 0.99 (0.67, 1.45) | Cortisol at PG3.0 mmol/l, estimated geometric mean [5, 9]: 245.9 nmol/L | Cortisol at PGnadir, estimated geometric mean ([5]; double dose, 19 glargine U100): 296.0 nmol/L | Cortisol at PG3.0 mmol/l, treatment ratio (95% CI) icodec vs glargine U100 ([5]; triple dose): 1.64 | Cortisol at PGnadir, treatment ratio (95% CI) icodec vs glargine U100 ([5]; triple dose): 1.80 | Cortisol at PGnadir, estimated geometric mean ([5]; triple dose, 29 glargine U100): 355.0 nmol/L | Cortisol at PG3.0 mmol/l, estimated geometric mean [5, 10]: 201.4 nmol/L | Growth hormone at PG3.0 mmol/l, treatment ratio (95% CI) icodec vs glargine U100 ([6]; double dose): 0.89 (0.46, 1.75) | Growth hormone at PGnadir, treatment ratio (95% CI) icodec vs glargine U100 ([6]; double dose): 1.35 (0.94, 1.94) | Growth hormone at PG3.0 mmol/l, estimated geometric mean [6, 9]: 3.6 µg/L | Growth hormone at PGnadir, estimated geometric mean ([6]; double dose, 19 glargine U100): 4.7 µg/L | Growth hormone at PG3.0 mmol/l, treatment ratio (95% CI) icodec vs glargine U100 ([6]; triple dose): 1.54 | Growth hormone at PGnadir, treatment ratio (95% CI) icodec vs glargine U100 ([6]; triple dose): 1.10 (0.50, 2.43) | Growth hormone at PGnadir, estimated geometric mean ([6]; triple dose, 29 glargine U100): 3.8 µg/L | Growth hormone at PG3.0 mmol/l, estimated geometric mean [6, 10]: 3.7 µg/L | Insulin receptor binding affinity [7]: low | Change in DBP at PG3.0 mmol/l, treatment difference (95% CI) icodec vs glargine U100 ([8]; double dose): 1.7 (-3.1, 6.4) | Change in DBP at PGnadir, treatment difference (95% CI) icodec vs glargine U100 ([8]; double dose): 0.5 (-4.0, 4.9) | Change in SBP at PG3.0 mmol/l, treatment difference (95% CI) icodec vs glargine U100 ([8]; double dose): 3.7 (-4.3, 11.7) | Change in SBP at PGnadir, treatment difference (95% CI) icodec vs glargine U100 ([8]; double dose): -5.2 (-16.5, 6.1) | Change in pulse at PG3.0 mmol/l, treatment difference (95% CI) icodec vs glargine U100 ([8]; double dose): -0.9 (-7.4, 5.7) | Change in pulse at PGnadir, treatment difference (95% CI) icodec vs glargine U100 ([8]; double dose): 0.2 (-5.0, 5.4) | Change in SBP at PG3.0 mmol/l, least-squares mean [8, 13]: -4.9 mmHg | Change in pulse at PG3.0 mmol/l, least-squares mean [8, 13]: -1.3 beats/min | Change in DBP at PGnadir, least-squares mean [8, 14]: -5.4 mmHg | Change in SBP at PGnadir, least-squares mean [8, 14]: -7.7 mmHg | Change in pulse at PGnadir, least-squares mean [8, 14]: 1.2 beats/min | Change in DBP at PG3.0 mmol/l, least-squares mean ([8]; double dose, change from baseline, supine, subgroup, n=17 icodec, 15 glargine U100): -6.1 mmHg | Change in DBP at PG3.0 mmol/l, treatment difference (95% CI) icodec vs glargine U100 ([8]; triple dose): 0.8 (-3.4, 5.0) | Change in DBP at PGnadir, treatment difference (95% CI) icodec vs glargine U100 ([8]; triple dose): 3.6 (-0.8, 8.0) | Change in SBP at PG3.0 mmol/l, treatment difference (95% CI) icodec vs glargine U100 ([8]; triple dose): 0.7 (-6.6, 8.0) | Change in SBP at PGnadir, treatment difference (95% CI) icodec vs glargine U100 ([8]; triple dose): 3.9 (-2.2, 10.0) | Change in pulse at PG3.0 mmol/l, treatment difference (95% CI) icodec vs glargine U100 ([8]; triple dose): 0.8 (-4.4, 5.9)
